From BindingDB's records for doi:10.1016/j.bmc.2011.04.011 (University of Toyama, 2011)

Target: T1, Lysosomal acid glucosylceramidase (Bos taurus, UniProt Q2KHZ8)
T1 sequence (Q2KHZ8 whole entry): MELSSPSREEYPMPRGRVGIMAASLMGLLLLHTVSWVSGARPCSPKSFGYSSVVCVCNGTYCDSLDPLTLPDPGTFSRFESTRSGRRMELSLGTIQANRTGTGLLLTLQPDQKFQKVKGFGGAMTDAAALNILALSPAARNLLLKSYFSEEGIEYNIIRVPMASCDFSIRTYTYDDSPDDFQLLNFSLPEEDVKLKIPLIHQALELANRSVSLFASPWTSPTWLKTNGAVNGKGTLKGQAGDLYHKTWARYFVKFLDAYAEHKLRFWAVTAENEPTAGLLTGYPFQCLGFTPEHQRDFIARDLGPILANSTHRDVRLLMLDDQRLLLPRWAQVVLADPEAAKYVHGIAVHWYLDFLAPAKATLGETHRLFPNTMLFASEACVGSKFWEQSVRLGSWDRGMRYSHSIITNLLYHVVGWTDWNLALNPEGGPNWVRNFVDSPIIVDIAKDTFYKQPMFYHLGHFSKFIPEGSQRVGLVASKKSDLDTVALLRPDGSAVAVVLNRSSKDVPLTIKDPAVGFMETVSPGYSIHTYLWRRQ
Assay: Inhibition of bovine liver beta-glucosidase assessed as production of 4-methylumbelliferone using 4-methylumbelliferyl beta-D-glucoside as substrate by spectrophotometry

IC50	Compound
31 µM	OC[C@H]1CNC[C@@H](O)[C@@H]1O
250 µM	OC[C@H]1NCC[C@@H](O)[C@@H]1O [(2R,3R,4R)-2-Hydroxymethyl-piperidine-3,4-diol]
5.6 µM	OC[C@H]1NCC[C@H](O)[C@@H]1O [3-epifagomine]
611 µM	OC[C@@H]1CNC[C@H](O)[C@H]1O [L-Isofagomine]
